Source: patent publication EP1032364B1, “TOPICAL COMPOSITIONS CONTAINING SIALYL SUGARS AND THEIR DERIVATIVES” (E-L Management Corp., priority 1998, dated 2000)
Where “and” joins values, the source holds several entries; their conditions need not be identical. Equal entries are not always repeated.

Tests used:
[1] = tested on: volunteers with a history of skin sensitivity to Balsam of Peru; experiment: in vivo skin anti-irritancy test, Balsam of Peru challenge, redness by Minolta chromameter (Example 2); conditions: for % Decrease In Redness: 20 min before Balsam of Peru, 7 volunteers; for preventing irritation caused by a topical irritant (in words): Balsam of Peru challenge, 0.1%
Text: The following in vivo assay illustrates the effectiveness of sialyl oligosaccharide derivatives, 3'- and 6'-sialyl lactose, in preventing skin irritation. The in vivo assays used to assess efficacy of topical anti-irritants are known to those skilled in the art, examples of such assays may be found in Muizzuddin et al., 1990, J. Soc. Cosmet. Chem. 41:369-378, and Lubach et al. in Topical Corticoids, Maibach & Surber (eds.) Basel, Karger, 1992, pp. 26-41, both of which are incorporated herein by reference in their entirety. The skin anti-irritancy effects of 3'- and 6'- sialyl lactose were tested on 7 volunteers with a history of skin sensitivity to Balsam of Peru. The test compounds were applied to the ventral forearms of the panelists. The material was allowed to absorb for twenty minutes and then Balsam of Peru, an irritant, was applied to the test sites. Skin irritation was measured in terms of increase in skin redness.
The degree of redness was measured with the Minolta chromameter and compared with the positive and negative controls. The positive control was the color of skin treated with Balsam of Peru alone and the negative control was the skin treated with cola material challenged like the test material.

PMN-endothelial cells = experiment: in vitro inhibition of adhesion of activated neutrophils to endothelial cells; format: cell-based; conditions: for % Inhibition of Adhesion: neutrophils activated with interleukin-1 or TPA
Experimental: The following in vitro assay illustrates the effectiveness of the sialyl oligosaccharide derivative, 3' sialyl lactose, in inhibiting the adhesion of cells that express SLeX on their surfaces to cells expressing a selectin receptor. The ability of 3'-sialyl lactose to inhibit cell adhesion was tested using an in vitro assay system. Neutrophils were activated with either interleukin-1 or phorbol ester, TPA, to induce expression of selections and binding to endothelial cells. The activated neutrophils were treated with either 3'-sialyl lactose at 0.01 and 0.02%, sucrose at 4% or a positive control, and then assayed for their ability to bind to PMN-endothelial cells.

[2] = tested on: volunteers with a history of skin sensitivity to Balsam of Peru; experiment: in vivo skin anti-irritancy test, Balsam of Peru challenge, redness by Minolta chromameter (Example 3); conditions: 0.1% topical on ventral forearm, 20 min before Balsam of Peru, 7 volunteers
Experimental: The following in vivo assay illustrates the effectiveness of 3'-sialyl oligosaccharide derivatives in preventing skin irritation. The skin anti-irritancy effects of various derivatives of 3'-sialyl lactose were tested on 7 volunteers with a history of skin sensitivity to Balsam of Peru. The test compounds benzyl sialyl lactose and ethyl sialyl lactose were applied to the ventral forearms of the panelists. The material was allowed to absorb for twenty minutes and then Balsam of Peru, an irritant, was applied on the test sites. Skin irritation was measured in terms of increase in skin redness. The degree of redness was measured with the Minolta chromameter and compared with the positive and negative controls. The positive control was the color of skin treated with Balsam of Peru alone and the negative control was the skin treated with cola material challenged like the test material.

[3] = 0.1% topical on ventral forearm

C[C@]12CCC(=O)C=C1CC[C@@H]1[C@@H]2[C@@H](O)C[C@@]2(C)[C@H]1CC[C@]2(O)C(=O)CO [Hydrocortisone, reference compound]
% Decrease In Redness ([1]; 0.5% topical on ventral forearm): 66%

CC(=O)N[C@H]1[C@H]([C@H](O)[C@H](O)CO)O[C@@](OC[C@H]2O[C@@H](O[C@H]3[C@H](O)[C@@H](O)[C@H](O)O[C@@H]3CO)[C@H](O)[C@@H](O)[C@H]2O)(C(=O)O)C[C@@H]1O [6'-Sialyl lactose, 6'-sialyl lactose]
% Decrease In Redness [1, 3]: 57%
preventing irritation caused by a topical irritant (in words) [1]: significant activity

CC(=O)N[C@H]1[C@H]([C@H](O)[C@H](O)CO)OC(O)(C(=O)O)C[C@@H]1O (some centres unmarked) [Sialic Acid, reference compound]
% Decrease In Redness [1, 3]: 31%

OC[C@H]1O[C@@](CO)(O[C@H]2O[C@H](CO)[C@@H](O)[C@H](O)[C@H]2O)[C@@H](O)[C@@H]1O [Sucrose, reference compound]
% Inhibition of Adhesion (PMN-endothelial cells; test compound at 4.0%): 40%

CC(=O)N[C@H]1[C@H]([C@H](O)[C@H](O)CO)O[C@@](O[C@H]2[C@@H](O)[C@@H](CO)O[C@@H](O[C@H]3[C@H](O)[C@@H](O)C(O)O[C@@H]3CO)[C@@H]2O)(C(=O)O)C[C@@H]1O (some centres unmarked) [3'-Sialyl lactose, 3'-N acetylneuraminyl-lactose]
inhibiting the adhesion of cells that express SLeX to cells expressing a selectin receptor (in words) (PMN-endothelial cells; 0.02%, IL-1 induced neutrophils): very effective
% Inhibition of Adhesion (PMN-endothelial cells; test compound at 0.01%): 39%
% Inhibition of Adhesion (PMN-endothelial cells; test compound at 0.02%): 61%
% Decrease In Redness [1, 3]: 69% and 67%
preventing irritation caused by a topical irritant (in words) [1]: significant activity

OC[C@H]1O[C@@H](O[C@H]2[C@H](O)[C@@H](O)C(O)O[C@@H]2CO)[C@H](O)[C@@H](O)[C@H]1O (some centres unmarked) [Lactose, reference compound]
% Decrease In Redness [1, 3]: 45%
preventing irritation caused by a topical irritant (in words) [1]: ineffective

benzyl sialyl lactose
% Decrease In Redness [2]: 42.47%
% Decrease In Redness ([2]; listed as benzyl sialyl lactose): 42.47%

ethyl sialyl lactose
% Decrease In Redness [2]: 40.6%
% Decrease In Redness ([2]; listed as lactose ethyl): 40.6%

CC(=O)N[C@H]1[C@H]([C@H](O)[C@H](O)CO)O[C@@](O[C@H]2[C@@H](O)[C@@H](CO)O[C@@H](O[C@H]3[C@H](O[C@@H]4O[C@@H](C)[C@@H](O)[C@@H](O)[C@@H]4O)[C@@H](NC(C)=O)C(O)O[C@@H]3CO)[C@@H]2O)(C(=O)O)C[C@@H]1O (some centres unmarked) [Sialyl Lewis X, NeuAcα2-3βGalβ1-4(Fucα1-3)GlcNAc, reference compound]
% Decrease In Redness [1, 3]: 66%
